Where two headings read alike, the source gives them in different places.
Columns and labels:
[1] = 1H NMR titration with octyloxy pyranoside α-Man; assay type: binding; settings: NMR titrations in CD2Cl2 at 298 K, 1:1 binding
[2] = tested on: ZIKV GFP RVPs; test: microbe, parasite or virus in culture; settings: Zika virus, Vero, Vero cells
[3] = 1H NMR titration with octyloxy pyranoside α-Glc; assay type: binding; settings: CD2Cl2, 298 K, 1:1 binding
[4] = tested on: ZIKV GFP RVPs
[5] = Cellular toxicity, CellTiter-Glo, Vero cells; settings: African green monkey
[6] = 1H NMR titration with octyloxy pyranoside β-Man; assay type: binding; settings: NMR titrations in CD2Cl2 at 298 K, 1:1 binding
[7] = NMR dilution experiments for dimerization; assay type: physicochemical; settings: dilution experiments in CD2Cl2
[8] = tested on: N154Q mutant ZIKV RVPs; assay type: cell-based, Zika virus; settings: Vero cells
[9] = Table 1, anti-ZIKV assay

Oc1cccc(CNCc2cc(CNCc3cccc(O)c3)cc(-c3cc(CNCc4cccc(O)c4)cc(CNCc4cccc(O)c4)c3)c2)c1 [SCR023, 3,3′,3″,3′″-((([1,1′-biphenyl]-3,3′,5,5′-tetrayltetrakis(methylene))tetrakis(azanediyl))tetrakis(methylene))tetraphenol]
Ka (M^−1) with α-Man [1]: 150 M⁻¹
IC50 ([2]; Table 3, ZIKV RVPs, average of at least two independent measurements): < 20 µM
Ka with α-Glc [3]: 310 M⁻¹
IC50 relative to regioisomer ([4]; SCR023 vs SCR022, SCR017 vs SCR001): at least four times higher
therapeutic index (TC50/IC50) ([4]; Table 3, Vero cells): 20
IC50 ([4]; Table 3, Vero cells, ZIKV RVPs, average of at least two independent measurements): 10.6 ± 5.9 µM
anti-ZIKV activity in words ([4]; Vero cells, ZIKV RVPs): weaker inhibition
CC50 at 72 h [5]: 207 ± 79 µM
Ka (M^−1) with β-Man [6]: 250 M⁻¹
dimerization in words [7]: Dimerization was observed

Cc1ccc(C(=O)Nc2ccc(S(=O)(=O)O)c3cc(S(=O)(=O)O)cc(S(=O)(=O)O)c23)cc1NC(=O)c1cccc(NC(=O)Nc2cccc(C(=O)Nc3cc(C(=O)Nc4ccc(S(=O)(=O)O)c5cc(S(=O)(=O)O)cc(S(=O)(=O)O)c45)ccc3C)c2)c1 [Suramin, reference compound]
IC50 ([2]; Table 1, compounds 30 min before ZIKV RVPs, GFP+ cells 72 h postinfection): 44 ± 4.19 µM
anti-ZIKV activity in words ([4]; Vero cells, ZIKV RVPs): dose dependent inhibition of ZIKV infection
CC50 at 72 h [5]: > 200 µM
inhibition of N154Q mutant RVPs in words [8]: inhibited

O=C(NCc1cc(CNC(=O)c2ccco2)cc(-c2cc(CNC(=O)c3ccco3)cc(CNC(=O)c3ccco3)c2)c1)c1ccco1 [SCR007, N,N′,N′″-([1,1′-biphenyl]-3,3′,5,5′-tetrayltetrakis(methylene))tetrakis(furan-2-carboxamide)]
solubility (words printed in the IC50 column) [9]: not soluble
anti-ZIKV activity in words [4]: not effective

Source: US12023323B2, “Carbohydrate-binding small molecules with antiviral activity” (priority 2018, dated 2024)
